Assay [1] has as its system Arabidopsis plants. The settings on record: normal Arabidopsis plants; cited from earlier work.
The subject of assay [2] is Arabidopsis plants. Briefly: Brassinazole application to Arabidopsis plants (mutant screen). Conditions: EMS mutagenized Arabidopsis plants, most plants. The format is in vivo, Arabidopsis thaliana. The procedure:
EMS mutagenized Arabidopsis seeds were grown into plants that were then subjected to a suppressor screen for mutants insensitive to the brassinosteroid pathway inhibitor brassinazole. […] The mutant protein is herein referred to as bzr1-D (SEQ ID NO. 7).
(§1) The mutagenized plants were put through a screening procedure based on the use of brassinazole, a triazole-type brassinosteroid biosynthesis inhibitor (Asami, et al., Plant Physiol. 123: 93, 2000).

Assay [3] deals with bzr1-D mutant. Briefly: Brassinazole sensitivity of the bzr1-D mutant. The format is in vivo, Arabidopsis thaliana.
Source text: as §1
The dark-grown bzr1-D mutant is insensitive to brassinazole inhibition of hypocotyl elongation. The bzr1-D mutant has a curly hypocotyl similar to that of a seedling grown on medium containing brassinosteroids.

The text below walks through data of patent US6921848B2, “Genes involved in brassinosteroid hormone action in plants” (The Salk Institute for Biological Studies, priority 2001, dated 2005).

Consider `CC(O)(c1ccccc1)C(Cc1ccc(Cl)cc1)n1cncn1` (stereo not shown) [brassinazole], for which the “Effects of brassinazole application” value in assay [1] is “dwarfism, altered leaf morphology, darker greening of leaves, and decreased hypocotyl length”. In addition, in assay [2], the “Phenotype of plants treated with brassinazole” value is on record as “stunted”. The Bassinazole sensitivity result in assay [3] (dark-grown) is on record as “insensitive”; in assay [3] (light-grown), “partially sensitive”.
